Measured values: the supplement of paper PMC11061612

What was measured:
[1] = test system: BT-549 (Breast Carcinoma); experiment: Bliss excess, mean over the matrix (fraction); higher = more synergy
Procedure, shortened: (§1)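 After 24 hours at 37°C and 5% CO2 in 1536-well plates, cells in DMEM/F12 or RPMI plus 10% FBS received two-drug dose matrices for 72 hours. Viability came from CellTiter-Glo 2.0 luminescence and was scaled as inhibition, anchored at 0 by vehicle wells and at 1 by blank wells. Combination Emax is taken as the second-highest inhibition in the matrix, and Bliss excess as the observed combination effect less EA + EB − EA·EB, with EA and EB the single-agent effects.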

[2] = test system: Ca9-22 (Head and Neck Carcinoma); experiment: as above
Procedure, shortened: as §1

[3] = test system: Caov-4 (Ovarian Carcinoma); experiment: as above
Procedure, shortened: as §1

[4] = test system: Hs-766T (Pancreatic Carcinoma); experiment: as above
Procedure, shortened: as §1

[5] = test system: SW13 (Other Solid Carcinomas); experiment: as above
Procedure, shortened: as §1

ACHN (Kidney Carcinoma) = experiment: combination Emax (second highest fraction inhibited in the dose matrix, 72 h); higher = more inhibition; extreme values may be limits of the assay
Procedure, shortened: as §1

[6] = test system: AMO-1 (Plasma Cell Myeloma); experiment: as above
Procedure, shortened: as §1

[7] = test system: BT-549 (Breast Carcinoma); experiment: as above
Procedure, shortened: as §1

D-263MG (Glioblastoma) = experiment: as above
Procedure, shortened: as §1

[8] = test system: EFM-19 (Breast Carcinoma); experiment: as above
Procedure, shortened: as §1

EW-24 (Ewing's Sarcoma) = experiment: as above
Procedure, shortened: as §1

[9] = test system: Hs-766T (Pancreatic Carcinoma); experiment: as above
Procedure, shortened: as §1

[10] = test system: KARPAS-299 (T-Cell Non-Hodgkin's Lymphoma); experiment: as above
Procedure, shortened: as §1

[11] = test system: LU-65 (Non-Small Cell Lung Carcinoma); experiment: as above
Procedure, shortened: as §1

[12] = test system: NCI-H727 (Other Solid Carcinomas); experiment: as above
Procedure, shortened: as §1

[13] = test system: RF-48 (B-Cell Non-Hodgkin's Lymphoma); experiment: as above
Procedure, shortened: as §1

[14] = test system: SW13 (Other Solid Carcinomas); experiment: as above
Procedure, shortened: as §1

TGW (Neuroblastoma) = experiment: as above
Procedure, shortened: as §1

UACC-62 (Melanoma) = experiment: as above
Procedure, shortened: as §1

YH-13 (Glioblastoma) = experiment: as above
Procedure, shortened: as §1
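For Bliss excess, mean over the matrix in this document: after 72 h of two-drug dosing.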

| SMILES | Bliss excess [1] | Bliss excess [2] | Bliss excess [3] | Bliss excess [4] | Bliss excess [5] | combination Emax (ACHN (Kidney Carcinoma)) | combination Emax [6] | combination Emax [7] | combination Emax (D-263MG (Glioblastoma)) | combination Emax [8] | combination Emax (EW-24 (Ewing's Sarcoma)) | combination Emax [9] | combination Emax [10] | combination Emax [11] | combination Emax [12] | combination Emax [13] | combination Emax [14] | combination Emax (TGW (Neuroblastoma)) | combination Emax (UACC-62 (Melanoma)) | combination Emax (YH-13 (Glioblastoma)) |
| --- | --- | --- | --- | --- | --- | --- | --- | --- | --- | --- | --- | --- | --- | --- | --- | --- | --- | --- | --- | --- |
| Cc1cc2ncnn2cc1Nc1ncc2c(n1)n(C1CCOCC1)c(=O)n2C [AZD7648] + C=CCn1c(=O)c2cnc(Nc3ccc(N4CCN(C)CC4)cc3)nc2n1-c1cccc(C(C)(C)O)n1 [AZD1775] (first compound max 10 µM, partner max 1 µM) | -0.0348 | 0.022 | 0.0222 | -0.0274 | 0.0004 | 0.893 | 0.755 | 0.679 | 0.392 | 0.615 | 0.458 | 0.555 | 0.927 | 0.692 | 0.351 | 0.532 | 0.329 | 0.732 | 0.536 | 0.449 |
| N#Cc1cnc(Nc2cc(NC[C@H]3CNCCO3)c(C(F)(F)F)cn2)cn1 [SRA737] + C=CCn1c(=O)c2cnc(Nc3ccc(N4CCN(C)CC4)cc3)nc2n1-c1cccc(C(C)(C)O)n1 [AZD1775] (first compound max 10 µM, partner max 1 µM) | 0.0819 | 0.154 | 0.0532 | 0.0161 | 0.0091 | 0.865 | 0.967 | 0.804 | 0.575 | 0.413 | 0.639 | 0.512 | 0.966 | 0.887 | 0.667 | 0.467 | 0.218 | 0.922 | 0.304 | 0.812 |
| CN(CCO)CC[C@H](CSc1ccccc1)Nc1ccc(S(=O)(=O)NC(=O)c2ccc(N3CCC([C@@H](O)c4ccccc4-c4ccc(Cl)cc4)CC3)cc2)cc1S(=O)(=O)C(F)(F)F [AZD4320] + C=CCn1c(=O)c2cnc(Nc3ccc(N4CCN(C)CC4)cc3)nc2n1-c1cccc(C(C)(C)O)n1 [AZD1775] (first compound max 1 µM, partner max 1 µM) | 0.0109 | 0.0335 | -0.0248 | -0.0431 | -0.02 | 0.986 | 0.732 | 0.751 | 0.381 | 0.716 | 0.913 | 0.398 | 0.938 | 0.763 | 0.515 | 0.885 | 0.167 | 1 | 0.71 | 0.449 |
| Cc1cc2ncnn2cc1Nc1ncc2c(n1)n(C1CCOCC1)c(=O)n2C [AZD7648] + CN(C)CCCOc1ccc(-c2ccc3ncc4c(c3c2)n(C2CCOCC2)c(=O)n4C)cn1 [AZD0156] (first compound max 10 µM, 7x7, partner max 1 µM) | 0.0101 | 0.0625 | 0.0511 | -0.0324 | 0.0107 | 0.293 | 0.431 | 0.254 | 0.25 | 0.403 | 0.364 | 0.525 | 0.237 | 0.334 | 0.294 | 0.349 | 0.39 | 0.351 | 0.302 | 0.345 |
| COc1cc2ncnc(Nc3ccc(F)c(Cl)c3)c2cc1OCCCN1CCOCC1 [Gefitinib] + CC(C)n1c(=O)n(C)c2cnc3cc(F)c(-c4ccc(OCCCN5CCCCC5)nc4)cc3c21 [AZD1390] (first compound max 10 µM, 7x7, partner max 0.3 µM) | -0.0549 | 0.0579 | -0.0591 | -0.0908 | -0.0233 | 0.551 | 0.323 | 0.0893 | 0.132 | 0.158 | 0.189 | 0.181 | 0.14 | 0.268 | 0.157 | 0.244 | 0.724 | 0.0238 | 0.248 | 0.145 |
| N#Cc1cnc(Nc2cc(NC[C@H]3CNCCO3)c(C(F)(F)F)cn2)cn1 [SRA737] + CCc1c2c(nc3ccc(O)cc13)-c1cc3c(c(=O)n1C2)COC(=O)[C@]3(O)CC [SN-38] (first compound max 10 µM, 7x7, partner max 0.3 µM) | -0.0463 | 0.0252 | -0.0488 | -0.0095 | -0.0192 | 0.893 | 0.967 | 0.75 | 0.823 | 0.689 | 0.768 | 0.631 | 0.999 | 0.906 | 0.609 | 0.769 | 0.948 | 0.714 | 0.664 | 0.832 |
